Where “and” joins values, the source holds several entries; their conditions need not be identical. Identical values can stand only once. Inconclusive results and toxic doses are left out.
Tested on: B6C3F1 mice, ip Sarcoma M5076, median survival T/C
Assay: NCI In Vivo Anticancer Drug Screen. Data for tumor model Sarcoma M5076 (intraperitoneal) in B6C3F1 mice
Conditions: endpoint: median survival time, higher = longer survival
Summary of the method: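 Mice carrying the transplanted tumour received compound treatment. Survival was recorded, and each value is the treated-group measurement divided by that of the vehicle-dosed control group.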

[1] = dose: 25.0 mg/kg/injection, schedule: Q04DX004 (ip), vehicle: saline with Tween-80
[2] = dose: 50.0 mg/kg/injection, schedule: Q04DX004 (ip), vehicle: saline with Tween-80
[3] = dose: 100.0 mg/kg/injection, schedule: Q04DX004 (ip), vehicle: saline with Tween-80
[4] = dose: 25.0 mg/kg/injection, schedule: Q04DX004 (ip), vehicle: Klucel (hydroxypropylcellulose) (HPC)
[5] = dose: 50.0 mg/kg/injection, schedule: Q04DX004 (ip), vehicle: Klucel (hydroxypropylcellulose) (HPC)
[6] = dose: 100.0 mg/kg/injection, schedule: Q04DX004 (ip), vehicle: Klucel (hydroxypropylcellulose) (HPC)

Q: Which results are given for `COc1cc2cc(c1Cl)N(C)C(=O)C[C@H](OC(=O)[C@H](C)N(C)C(C)=O)[C@]1(C)O[C@H]1[C@H](C)[C@@H]1C[C@@](O)(NC(=O)O1)[C@H](OC)C=C/C=C(\C)C2`?
A: T/C (dose: 18.75 micrograms/kg/injection, schedule: Q04DX004 (ip), vehicle: saline): 101 % of control; T/C (dose: 37.5 micrograms/kg/injection, schedule: Q04DX004 (ip), vehicle: saline): 103 % of control and 119 % of control; T/C (dose: 37.5 micrograms/kg/injection, schedule: Q04DX005 (ip), vehicle: saline): 108 % of control and 217 % of control; T/C (dose: 75.0 micrograms/kg/injection, schedule: Q04DX004 (ip), vehicle: saline): 112 % of control; T/C (dose: 75.0 micrograms/kg/injection, schedule: Q04DX005 (ip), vehicle: saline): 119 % of control; T/C (dose: 150.0 micrograms/kg/injection, schedule: Q04DX004 (ip), vehicle: saline): 114 % of control; T/C (dose: 300.0 micrograms/kg/injection, schedule: Q04DX004 (ip), vehicle: saline): 114 % of control

Q: With `OCC1OC(n2cnc3cc(Cl)c(Cl)cc32)C(O)C1O` (centres undefined) as the molecule, how does the T/C (dose: 150.0 mg/kg/injection, schedule: Q04DX004 (ip), vehicle: saline with Tween-80) read?
A: 104 % of control

Q: What about the T/C (dose: 300.0 mg/kg/injection, schedule: Q04DX004 (ip), vehicle: saline with Tween-80) of the same molecule?
A: 109 % of control

Q: What about the T/C (dose: 600.0 mg/kg/injection, schedule: Q04DX004 (ip), vehicle: saline with Tween-80) of the same molecule?
A: 107 % of control

Q: Which T/C [1] does the source give for `O=C1N(Cl)C(=O)C(c2ccc(Cl)cc2)(c2ccc(Cl)cc2)N1Cl` here?
A: 102 % of control

Q: And the T/C [2]?
A: 102 % of control

Q: What about the T/C [3] of the same molecule?
A: 96 % of control

Q: Which T/C [1] does the source give for `CN1CCOc2c1cnn(CCO)c2=O` here?
A: 105 % of control

Q: And the T/C [2]?
A: 96 % of control

Q: What about the T/C [3] of the same molecule?
A: 94 % of control

Q: What about the T/C (dose: 200.0 mg/kg/injection, schedule: Q04DX004 (ip), vehicle: saline with Tween-80) of the same molecule?
A: 99 % of control

Q: And the T/C (dose: 400.0 mg/kg/injection, schedule: Q04DX004 (ip), vehicle: saline with Tween-80)?
A: 99 % of control

Q: `CC(=O)c1cccc(NC2C(N)C(NC(=O)N(C)C)(C(C)O)C(C)(O)C2(O)COC(=O)c2c(C)cccc2O)c1` (centres undefined) was tested. Which T/C (dose: 2.5 mg/kg/injection, schedule: Q04DX004 (ip), vehicle: saline) did it give?
A: 112 % of control and 114 % of control

Q: What about the T/C (dose: 5.0 mg/kg/injection, schedule: Q04DX004 (ip), vehicle: saline) of the same molecule?
A: 105 % of control and 115 % of control

Q: And the T/C (dose: 10.0 mg/kg/injection, schedule: Q04DX004 (ip), vehicle: saline)?
A: 117 % of control and 120 % of control

Q: And the T/C (dose: 20.0 mg/kg/injection, schedule: Q04DX004 (ip), vehicle: saline)?
A: 115 % of control

Q: With `CC1=CCCC2C1(C)CCC(C)C2(C)Cc1cc(O)ccc1O` (centres undefined) as the molecule, how does the T/C (dose: 6.25 mg/kg/injection, schedule: Q04DX004 (ip), vehicle: Klucel (hydroxypropylcellulose) (HPC)) read?
A: 103 % of control

Q: And the T/C (dose: 12.5 mg/kg/injection, schedule: Q04DX004 (ip), vehicle: Klucel (hydroxypropylcellulose) (HPC))?
A: 99 % of control

Q: What about the T/C [4] of the same molecule?
A: 101 % of control

Q: And the T/C [5]?
A: 99 % of control

Q: And the T/C [6]?
A: 102 % of control

Q: What does the source list for `Cc1ccoc1`?
A: T/C (dose: 16.8 mg/kg/injection, schedule: Q03HX012 (ip), vehicle: saline with Tween-80): 101 % of control; T/C (dose: 33.3 mg/kg/injection, schedule: Q03HX012 (ip), vehicle: saline with Tween-80): 93 % of control; T/C (dose: 66.6 mg/kg/injection, schedule: Q03HX012 (ip), vehicle: saline with Tween-80): 96 % of control; T/C (dose: 133.3 mg/kg/injection, schedule: Q03HX012 (ip), vehicle: saline with Tween-80): 100 % of control

Q: Which T/C [4] does the source give for `O=c1[nH]cnc2c1cnn2CN1CCOCC1` here?
A: 99 % of control

Q: And the T/C [5]?
A: 101 % of control

Q: What about the T/C [6] of the same molecule?
A: 98 % of control

Q: And the T/C (dose: 200.0 mg/kg/injection, schedule: Q04DX004 (ip), vehicle: Klucel (hydroxypropylcellulose) (HPC))?
A: 112 % of control

Q: With `OC1(c2cccc(Cl)c2)C2=NCCCN2c2ccccc21` (centres undefined) as the molecule, how does the T/C (dose: 6.25 mg/kg/injection, schedule: Q04DX004 (ip), vehicle: saline with Tween-80) read?
A: 102 % of control

Q: And the T/C (dose: 12.5 mg/kg/injection, schedule: Q04DX004 (ip), vehicle: saline with Tween-80)?
A: 103 % of control

Q: And the T/C [1]?
A: 100 % of control

Q: What about the T/C [2] of the same molecule?
A: 99 % of control

Q: How did the T/C (dose: 2.5 micrograms/kg/injection, schedule: Q04DX004 (ip), vehicle: saline + alcohol) turn out when `C=C1C(O)C2OC3(CCC(/C=C/C(C)C4CC5(C)SC5C5(OC(CC(C)(O)C(=O)O)CCC5O)O4)O3)CCC2OC1C(O)CC(C)C1OC2(CCCCO2)CCC1C` (centres undefined) was run?
A: 101 % of control

Q: What about the T/C (dose: 5.0 micrograms/kg/injection, schedule: Q04DX004 (ip), vehicle: saline + alcohol) of the same molecule?
A: 96 % of control

Q: And the T/C (dose: 10.0 micrograms/kg/injection, schedule: Q04DX004 (ip), vehicle: saline + alcohol)?
A: 99 % of control

Q: And the T/C (dose: 20.0 micrograms/kg/injection, schedule: Q04DX004 (ip), vehicle: saline + alcohol)?
A: 95 % of control

Q: What about the T/C (dose: 40.0 micrograms/kg/injection, schedule: Q04DX004 (ip), vehicle: saline + alcohol) of the same molecule?
A: 95 % of control
